From PubChem BioAssay AID588614 (The Scripps Research Institute Molecular Screening Center, 2011)
The source made the active and inactive calls.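 Rule for the calls: active = Level of the kinase MAPK1 protein lowered or raised by at least 30% versus solvent-only cells; inactive = change under 30% either way.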

Assays:
[1] = tested on: DLD-1 cells, ERK1/2 western blot, 24 h; assay: MAPK1 abundance shift in treated cells – DLD1 cells, chemiluminescent western blot, powder samples, counter-screen for KLF5 inhibitor project, late-stage follow-up (AID 588614); settings: measured here: ERK1/2 band fold change vs DMSO; at 10 µM
[2] = target: Mitogen-activated protein kinase 1 (Homo sapiens) (UniProt P28482); assay: as above; settings: DLD-1 cells, ERK1/2 western blot, 24 h; at 10 µM; stronger effect = higher value
Sequence of Mitogen-activated protein kinase 1 (Homo sapiens) (P28482 whole entry, looked up): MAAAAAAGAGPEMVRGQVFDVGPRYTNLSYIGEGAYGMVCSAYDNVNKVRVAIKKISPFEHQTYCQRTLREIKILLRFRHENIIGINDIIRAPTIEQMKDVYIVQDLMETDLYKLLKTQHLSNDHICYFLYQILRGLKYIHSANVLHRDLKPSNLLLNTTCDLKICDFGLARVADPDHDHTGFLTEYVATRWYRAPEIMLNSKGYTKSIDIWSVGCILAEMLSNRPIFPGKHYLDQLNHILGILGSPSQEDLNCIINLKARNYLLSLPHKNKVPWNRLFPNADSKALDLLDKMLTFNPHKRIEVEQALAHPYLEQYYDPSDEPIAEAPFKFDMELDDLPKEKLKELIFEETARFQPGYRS

inhibition [2] | SMILES | fold change [1]
19.8% (inactive) | CN(C(=O)COC(=O)/C=C/c1cccc([N+](=O)[O-])c1)C1CCS(=O)(=O)C1 (stereo unspecified) | -1.25
20.8% (inactive) | CN(C(=O)CNC(=O)/C=C/c1cccc(Cl)c1)C1CCS(=O)(=O)C1 (stereo unspecified) | -1.26
21.5% (inactive) | CN(C(=O)CNC(=O)/C=C/c1cccc(Cl)c1)C1CCS(=O)(=O)CC1 | -1.27
